One series deals with Candida albicans L145. Nature of the series: Broth microdilution antimicrobial assay, C. albicans. In kind it is cell-based. As to conditions: for MIC: Candida albicans, L145, read-out: MIC (Minimal Inhibitory Concentration). The text has this: (§1) As known, S. lividans TK24 could potentially produce actinorhodin (ACT), undecylprodigiosin (UDP), and calcium-dependent antibiotic (CDA), especially when grown under fermentation conditions. Broth microdilution assay, standardized by the Clinical and Laboratory Standards Institute (CLSI) was then used to evaluate antibiotic presence in samples deriving from enzyme preparations obtained by the method of the invention. Antimicrobial activity has been tested against test microorganisms (test-mo), known to not show any antibiotic resistance: Staphylococcus aureus ATCC6538 (representative of Gram+); Escherichia coli L47 (Lepetit collection; representative of Gram-); Candida albicans L145 (Lepetit collection; representative of Yeast).
(§2) A two-fold serial dilution of the samples to be tested was performed in sterile 96-well microplates, then inoculated with the test-mo in their respective medium (100 μl/well final volume); each determination was carried out in triplicate. The inoculated microplates were then incubated for 18, 20 and 24 h for E. coli, S. aureus and C. albicans, respectively, at 35° C. Antimicrobial activity of samples of unknown “antimicrobial” concentration was measured as endpoint, that is the highest dilution that inhibits the test strain growth; it was determined by visual examination of the microplates with the aid of a magnifying mirror.
In general terms: Broth dilution looks for growth in wells or tubes with falling amounts of substance.

Another series concerns Escherichia coli L47. Briefly: Broth microdilution antimicrobial assay, E. coli. In kind it is cell-based. The conditions noted are these: E. coli L47, 18 h, 35° C.; for MIC: Escherichia coli, read-out: MIC (Minimal Inhibitory Concentration).
Source text: as §1, §2

Series [1] deals with Staphylococcus aureus ATCC6538. Nature of the series: Broth microdilution antimicrobial assay, S. aureus. As to conditions: S. aureus ATCC6538, 20 h, 35° C.; for MIC: Staphylococcus aureus, read-out: MIC (Minimal Inhibitory Concentration). Type of series: cell-based.
Source text: as §1, §2

The subject of another series is gliadin. Briefly: Gliadin digestion by native E40 fraction (SDS-PAGE). The conditions noted are these: 2 hours, 37° C., pH 3. In kind it is biochemical. The protocol: (§3) FIG. 1. Activity of Actinoallomurus A8 culture supernatant fraction containing the native E40. A: relative activity toward the substrate sucAlaAlaProPhe-AMC (sucAAPF-AMC) at various pH values (the optimum —100% activity— is at pH 5). B: Gliadin digestion after 2 hours of incubation at 37° C., pH 3. Gel stained with Coomassie R250 brilliant blue; Lane 1: gliadin alone, lane 2: gliadin+E40-containing supernatant fraction.
Native E40 of sequence SEQ ID NO: 3 was purified from the supernatant fraction of an Actinoallomurus A8 culture isolated from soil (native E40) as described in WO2013083338.

Series [2] can be described thus: Activity of culture supernatant toward sucAAPF-AMC at various pH. In kind it is biochemical. The protocol:
as §3
FIG. 3. Recombinant E40 (SEQ ID NO: 2) obtained by S. lividans TK24/p1J86/e40 submerged fermentation, at flask scale (panels A-C) or in a 15 L bioreactor, followed by purification (panels D-E). A: activity toward the substrate sucAAPF-AMC at pH 5 of supernatant samples taken at different fermentation times (♦72, ▴96, ●168, ▪192 fermentation hours) from the producing S. lividans TK24/p1J86/E40 (E40, continuous line) and absence of activity of supernatant samples taken from the pIJ86-empty control strain (ctr, dashed lines). Activity is shown as relative fluorescent units (rfu, Y axis) produced in time (X axis). […] D: profile of an enzyme preparation comprising recombinant E40 purified from the 15 L fermentation; lane 1: final enzyme preparation comprising recombinant E40 stained with Coomassie (the arrow indicates recombinant E40), lane 2: zymography as in C, lane 3: band of gelatin hydrolysis after 2 hours of digestion at 37° C. and pH 5, visualized after Coomassie staining of the gelatin substrate. E: relative activity (%) of recombinant E40 in the purified enzyme preparation at different pH values (from 2 to 8), evaluated with the substrate suc-Ala-Ala-Pro-Phe-pNA.
As well as native E40, recombinant E40 was active in the pH range 3-6, with an optimum at pH 5 (FIG. 3, panel B).

Converted amounts (≈) assume the structure as drawn. Like-named read-outs stand apart in the source and are kept apart here. Bounds are passed on as bounds.

Consider `c1c[nH]cn1` [Imidazole, imidazole], for which the MIC in the series with Candida albicans L145 (C. albicans L14) is 3.9 mM.
With `C[C@@H]1[C@H](O)[C@@H](C)/C=C/C=C/C=C/C=C/C=C/C=C/C=C/[C@H](O[C@@H]2O[C@H](C)[C@@H](O)[C@H](N)[C@@H]2O)C[C@@H]2O[C@](O)(C[C@@H](O)C[C@@H](O)[C@H](O)CC[C@@H](O)C[C@@H](O)CC(=O)O[C@H]1C)C[C@H](O)[C@H]2C(=O)O` [Amphotericin B, amphotericin B], the “MIC (Minimal Inhibitory Concentration)” value with Escherichia coli L47 was greater than 128 µg/mL; against Candida albicans L145 (C. albicans L14, 24 h, 35° C.) it was 0.5 µg/mL (≈ 0.541 µM); in series [1] it was greater than 128 µg/mL.
As for `CCCCCCCCCC(=O)N[C@@H](Cc1c[nH]c2ccccc12)C(=O)N[C@H](CC(N)=O)C(=O)N[C@@H](CC(=O)O)C(=O)N[C@@H]1C(=O)NCC(=O)N[C@@H](CCCN)C(=O)N[C@@H](CC(=O)O)C(=O)N[C@H](C)C(=O)N[C@@H](CC(=O)O)C(=O)NCC(=O)N[C@H](CO)C(=O)N[C@@H]([C@H](C)CC(=O)O)C(=O)N[C@@H](CC(=O)c2ccccc2N)C(=O)O[C@@H]1C` [Daptomycin, daptomycin], the MIC in the series with Escherichia coli L47 was greater than 128 µg/mL; in the series with Candida albicans L145 (C. albicans L14, 24 h, 35° C.), greater than 128 µg/mL; in series [1], 0.5 µg/mL (≈ 0.309 µM).
On to `CN[C@@H]1[C@@H](O[C@H]2O[C@H](CO)[C@@H](N)[C@H](O)[C@H]2O)OC2C[C@@H](N)[C@@H](O[C@H]3[C@H](O)[C@@H](O)[C@H](N)C[C@@H]3N)OC2[C@@H]1O` (stereo partly shown) [Apramycin], for which the MIC in the series with Escherichia coli L47 is 8 µg/mL (≈ 14.8 µM); in the series with Candida albicans L145 (C. albicans L14, 24 h, 35° C.), greater than 128 µg/mL; in series [1], 8 µg/mL (≈ 14.8 µM).

B1: Native E40: E40 of SEQ ID NO: 3 purified from supernatant fraction of an Actinoallomurus A8 culture as in WO2013083338 (protein)
chain: MSRRVTGTILGGLILAMVPFLSTAANAAPQAAPASVSHPFHHSCATVKPGRASCNALVRSDIAQSAATLAHQAAAPSGLSPANLQSAYKLPSSTAGSGQTVAIVDAYDAPTAEADLNVYRSQFGLGACTTANGCFKKVDQNGGTSYPRKDGGWAQEISLDLDMVSAVCPNCKIVLVEAKTNSFANLGTAENTAASLANVISNSYGGSDASDASYGSYYNHPGKAITVSSGDAGYGVEYPASSHYVTAVGGTSLRTASTSRGWSETAWSGAGSGCSAYNTALSGQSGLTGCSRRAVADVSAVADPATGVAVYDSTAYQGQSGWMVFGGTSVAAPIIGGVYGLAANAASIDNNYPYAHTSSLFDVTSGSNGTCTTTKWCTAGTGWDGPTGLGTPNGTGAF
modifications: Actinoallomurus
For the molecule B1, in the series on gliadin, the gliadin digestion entry is reported as “completely digested”. Also, the “pH range of marked glutenase activity” value in series [2] (native E40) is on record as 3-6. Also, the “pH optimum of relative activity” value in series [2] (native E40-containing Actinoallomurus A8 supernatant fraction, sucAAPF-AMC) came to 5.

The values are drawn from patent US20220364069A1, “METHOD FOR THE PRODUCTION OF AN ENZYMATIC COMPOSITION COMPRISING A RECOMBINANT ENDOPEPTIDASE” (NEMYSIS LIMITED, priority 2019, published 2022).
